# Laboratory results taken from article PMC8746705, “Comparison of Experimental Strategies to Study L-Type Amino Acid Transporter 1 (LAT1) Utilization by Ligands” (Molecules, 2021).
# Read-outs that look alike come from different tables or passages of the source.
# How the values were obtained:
# [1] = Stability / bioconversion of prodrugs to parent drugs (biological media, 0.1 M NaOH cell lysing); assay type: in vitro ADME; details: cell lysate samples for LC-MS/MS (Table S1 footnote)
# Excerpt: LAT1-utilizing prodrugs 1–15 (Figure 1) were selected for this study based on their ability to utilize LAT1 expressed in cells used in our previous studies. Therefore, the syntheses of these compounds are not described herein as they have been reported earlier. These compounds include prodrugs of an investigational immunosuppressive agent, perforin inhibitor (1), non-steroidal anti-inflammatory drugs (NSAIDs), ketoprofen (2–4, 14), salicylic acid (8), flurbiprofen (9 and 12), ibuprofen (10 and 13) and naproxen (11 and 15), as well as the polyphenolic antioxidant, ferulic acid (5–7). […] In addition, all NSAID prodrugs (compounds 2–4, 9–15) were prepared from their pure S-enantiomers. Prodrugs of ferulic acid (compounds 5–7) were mixtures of E- and […], which were interconvertible over time. […] Therefore, both prodrug and the released parent drug proportions were quantified and taken into account when calculating concentrations transported into the cells.
# 1. LC-MS/MS ionization parameters of compounds 1-15
# Table S1. Ionization parameters for the LC-MS/MS methods of the studied compounds.
# Precursor Product Fragmentor Collision Flow rate Gradient LLOQ
# Compound ion ion(s) Voltage (V) Energy (mL/min) (A:B) (nM) […]
# perforin inhibitor 1a and therefore, their transitions with a positive ion mode are reported only as KPF or as a prodrug and parent drug in parentheses. […]
# drugs (ferulic acid (FA), flurbiprofen (FLB), ibuprofen (IBU), and naproxen (NPX), respectively), whose transitions with a negative ion mode are reported below the studied LAT1 -utilizing compounds i n parentheses.
# LAT1 [2] = target: T1, LAT1 (Mus musculus, UniProt Q9Z127); test: Inhibition type of [14C]-L-Leu uptake (Hanes-Woolf plots) in BV2 cells; assay type: cell-based; details: for Vmax of [14C]-L-Leu uptake: 0.010–0.20 µM [14C]-L-Leu in the presence of the compound at its IC50, mean ± SD, n = 3–4; for IC50: Table 2, compound concentration used in the inhibition type study, corresponding to IC50 of [14C]-L-Leu uptake; for Inhibition Type: of [14C]-L-Leu uptake, concluded from Km and Vmax
# T1 sequence (Q9Z127 whole entry): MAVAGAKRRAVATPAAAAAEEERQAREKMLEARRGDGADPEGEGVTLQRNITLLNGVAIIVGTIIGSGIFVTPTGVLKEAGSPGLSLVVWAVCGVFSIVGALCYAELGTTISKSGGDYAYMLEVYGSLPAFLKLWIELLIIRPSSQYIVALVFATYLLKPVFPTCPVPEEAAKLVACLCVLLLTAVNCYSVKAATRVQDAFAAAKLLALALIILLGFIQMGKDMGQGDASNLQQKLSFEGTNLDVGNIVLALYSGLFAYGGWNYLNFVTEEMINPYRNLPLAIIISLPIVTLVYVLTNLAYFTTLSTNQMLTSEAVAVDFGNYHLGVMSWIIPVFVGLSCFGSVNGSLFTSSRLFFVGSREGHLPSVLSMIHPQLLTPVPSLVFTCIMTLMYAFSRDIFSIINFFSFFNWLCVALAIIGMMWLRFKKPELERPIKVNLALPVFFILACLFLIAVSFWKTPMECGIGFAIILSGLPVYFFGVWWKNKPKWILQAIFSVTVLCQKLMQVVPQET
# T1 sequence (P10852 whole entry partner): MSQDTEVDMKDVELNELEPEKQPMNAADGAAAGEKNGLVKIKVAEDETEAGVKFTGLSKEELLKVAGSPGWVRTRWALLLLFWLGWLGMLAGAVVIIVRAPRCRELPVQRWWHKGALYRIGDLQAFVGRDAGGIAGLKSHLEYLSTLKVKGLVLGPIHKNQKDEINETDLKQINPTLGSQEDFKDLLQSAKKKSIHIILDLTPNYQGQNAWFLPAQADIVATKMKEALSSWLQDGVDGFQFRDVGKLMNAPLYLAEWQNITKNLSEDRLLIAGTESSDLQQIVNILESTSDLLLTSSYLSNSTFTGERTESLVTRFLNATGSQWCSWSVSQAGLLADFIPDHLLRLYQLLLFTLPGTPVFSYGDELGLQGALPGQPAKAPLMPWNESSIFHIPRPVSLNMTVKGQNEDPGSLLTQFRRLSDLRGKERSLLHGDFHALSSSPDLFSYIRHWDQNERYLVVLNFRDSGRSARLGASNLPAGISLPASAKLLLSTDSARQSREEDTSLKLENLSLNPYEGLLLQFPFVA
# Procedure: (§1) After removal of the culture medium, the BV2 cells were carefully washed with pre-warmed HBSS (Hank’s balanced salt solution) containing 125.0 mM choline chloride, 4.8 mM KCl, 1.2 mM MgSO4, 1.2 mM KH2PO4, 1.3 mM CaCl2, 5.6 mM glucose, and 25.0 mM HEPES (pH 7.4 adjusted with 1 M NaOH). Pre-incubation was done with 500 μL of pre-warmed HBSS at 37 °C for 10 min before adding substrates (250 μL in HBSS) for the uptake experiments.
# To evaluate the inhibition type of studied compounds, the BV2 cells were incubated with 0.010–0.20 μM [^14C]-L-leucine together with the studied compound. The concentration of compounds was selected according to the compound-specific IC50 values. The experiment was then carried out as described for the [^14C]-L-leucine uptake above and the radioactivity was measured by liquid scintillation counting. Hanes-Woolf plots were created by setting the ratio of initial substrate concentration to the reaction velocity ([S]/v) against [^14C]-L-leucine concentration (µM). The linear regression was used to calculate Km value (negative value of x-intercept) and Vmax value (1/slope) for [^14C]-L-leucine.
# [3] = Time-dependent cellular uptake of compounds into BV2 cells (LC-MS/MS); assay type: cell-based, mouse; details: mouse, BV2 microglia cells, 100 µM compound, 1–60 min, mean ± SD, n = 3, read-out: T½ of cellular uptake
# Procedure: (§2) For the time-dependent cellular uptake experiments, the BV2 cells on 24-well plates were incubated with studied compounds (100 μM) in a pre-warmed HBSS buffer (250 μL) at 37 °C for 1–60 min. Subsequently, the cells were washed three times with an ice-cold HBSS and lysed with 250 μL of NaOH (0.1 M) for 60 min. The lysates were diluted with acetonitrile (ACN) including the selected internal standard (diclofenac to all compounds) with a ratio of 1:3 and centrifuged at 10,000× g for 10 min. The samples were analyzed by the liquid chromatography-tandem mass spectrometric (LC-MS/MS) methods as described below. The concentrations of each compound in cell lysates were calculated from the standard curve that was prepared by spiking known amounts of compounds to ACN including the selected internal standard and then normalized with protein concentration. The protein concentrations on each plate were determined as a mean of three samples by Bio-Rad Protein Assay, based on the Bradford dye-binding method, using bovine serum albumin (BSA) as a standard protein and measuring the absorbance (595 nm) by multiplate reader (EnVision, Perkin Elmer, Inc., Waltham, MA, USA).
# (§3) The studied compounds (1–15) were analyzed by using Agilent 1200 Series Rapid Resolution LC System together with an Agilent 6410 Triple Quadrupole Mass Spectrometer equipped with an electrospray ionization source (Agilent Technologies, Santa Clara, CA, USA). The chromatographic separations of analytes were achieved by using a reversed-phase Zobrax SB-C18 column (50 mm × 2.1 mm, 1.8 μm; Agilent Technologies, Santa Clara, CA, USA) by eluting the samples with 0.1% formic acid in water (A) and 0.1% formic in ACN (B). Labetalol and diclofenac were used as internal standards (ISTD) for the prodrugs and parent drugs, respectively. The transitions used for the quantification at the positive ion mode and chromatographic conditions of each compound and their parent drugs are listed in Table S1. The methods of compounds 1–11 have been reported earlier, while the methods of compounds 12–15 are reported herein for the first time.
# [4] = system: immortalized mouse microglia (BV2); test: as above; assay type: cell-based; details: 100 µM compound, 1–60 min, mean ± SD, n = 3
# Procedure: as §2, §3
# LAT1 [5] = target: T1, LAT1; set-up: method as in earlier work; details: BV2 cells; probe [14C]-L-Leu; mean ± SD; published earlier; ref [31] or [33]; read-out: IC50 of [14C]-L-Leu uptake; cited from earlier work
# LAT1 [6] = target: T1, LAT1; test: Concentration-dependent cellular uptake into BV2 cells, Eadie–Hofstee analysis, Transport Type 1 (LAT1); assay type: cell-based
# Procedure: For the concentration-dependent cellular uptake experiments, the BV2 cells on 24-well plates were incubated with studied compounds (1–200 μM) in pre-warmed HBSS buffer (250 μL) at 37 °C for 30 min. The experiment was then carried out as described for the time-dependent uptake above and the concentration of studied compounds in the cell lysate was analyzed by the LC-MS/MS methods described above and the results were normalized to the total protein concentration. The distinct transport mechanisms were separated from the Michaelis-Menten kinetics by using Eadie–Hofstee plot.
# as §3
# LAT1 [7] = target: T1, LAT1; test: Cellular uptake of compounds in the presence of LAT1-inhibitor (KMH-233); assay type: cell-based; details: 100 µM compound, 100 µM KMH-233, 30 min, BV2
# Procedure: The competitive uptake in the presence of LAT1-inhibitor (KMH-233) was carried out as described above with HBSS buffer solution containing 100 µM of the studied compounds. The cells were pre-incubated with 100 µM LAT1-inhibitor for 10 min and the incubation mixture was removed before adding the studied compound and LAT1-inhibitor on the cells. The competitive uptake (30 min) with the inhibitor was then carried out as the normal uptake described above. The amounts of studied compounds were analyzed by the LC-MS method and calculated from the spiked standard curve and normalized with the protein concentrations.
# LAT1 [8] = target: T1, LAT1; test: Cis-inhibition of radiolabelled LAT1-probe substrate uptake into BV2 cells; assay type: cell-based; details: 5 min, mean ± SD
# Procedure: as §1
# The ability of compounds 1–15 to inhibit the uptake of a known LAT1 substrate [^14C]-L-leucine was then evaluated by incubating the cells at 37 °C for 5 min in uptake buffer pH 7.4 (250 μL) containing 0.2 µCi/mL of [^14C]-L-leucine, or 2 µCi/mL of [^3H]-L-methionine, [^3H]-L-tryptophan or [^3H]-L-kynurenine (PerkinElmer, Waltham, MA, USA) and 0.1–1000 μM of the studied compound (or HBSS as blank). After incubation, the uptake was stopped by adding 250 µL of ice-cold HBSS, and the cells were washed two times with ice-cold HBSS. The cells were then lysed with 500 μL of NaOH (0.1 M) for 60 min and the lysate was mixed with 3.5 mL of Emulsifier safe cocktail (Ultima Gold, PerkinElmer, Waltham, MA, USA). The radioactivity in the cells was measured by liquid scintillation counting (MicroBeta^2 counter, PerkinElmer Waltham, MA, USA). Half of the maximum inhibitory concentration (IC50) values were calculated by nonlinear regression analysis (fitting the curve to log (concentration) vs. remaining normalized […]).
# LAT1 [9] = target: T1, LAT1; test: LAT1 function followed between cell passages with [14C]-L-leucine; details: BV2 cells, passages 8–15
# [10] = 1–200 µM, 30 min, BV2, Eadie–Hofstee, mean ± SD, n = 3
# [11] = probe [3H]-L-Kynu, n = 3–4, read-out: IC50 of [3H]-L-Kynu uptake
# [12] = probe [3H]-L-Met, n = 3–4, read-out: IC50 of [3H]-L-Met uptake
# [13] = probe [3H]-L-Trp, n = 3–4, read-out: IC50 of [3H]-L-Trp uptake
Conversion to parent drug in the analysed samples [1],Vmax of [14C]-L-Leu uptake (LAT1 [2]; BV2),IC50 (LAT1 [2]),Inhibition Type (LAT1 [2]; BV2),half-life at 100 μM [3],Km (LAT1 [6]; [10]),Transport Type 1 (LAT1) Vmax (LAT1 [6]; [10]),Cellular uptake in the presence of LAT1-inhibitor (LAT1 [7]),IC50 (LAT1 [8]; [11]),IC50 (LAT1 [8]; [12]),IC50 (LAT1 [8]; [13]),Cellular uptake (LAT1 [6]; BV2 cells),"Vmax of [14C]-L-Leu uptake (control) (LAT1 [2]; 0.010–0.20 µM [14C]-L-Leu alone, no compound, BV2)","Km (LAT1 [2]; 0.010–0.20 µM [14C]-L-Leu alone, no compound, BV2, read-out: Km of [14C]-L-Leu uptake (control))",Vmax of [14C]-L-leucine uptake (LAT1 [9]),Km (LAT1 [9]; read-out: Km of [14C]-L-leucine uptake),Structure (SMILES),Max. cellular uptake [4],IC50 (LAT1 [5])
partly converted to their parent,2.186 ± 0.231 nmol/min/mg,5 µM,Mixed type,3.6 ± 1.47 min,8.2 ± 1.8 µM,63 ± 8 pmol/mg/min,inhibited significantly,9.7 ± 1.2 µM,9.8 ± 1.4 µM,36.3 ± 1.2 µM,,,,,,CC(C)Cc1ccc([C@H](C)C(=O)Oc2cccc(C[C@H](N)C(=O)O)c2)cc1 [Compound 13],25.90 ± 2.41 nmol/mg of protein,5.3 ± 1.2 µM
fully converted into ketoprofen,2.622 ± 0.268 nmol/min/mg,53 µM,Mixed type,2.2 ± 0.62 min,,,only reductive trends were seen,91.5 ± 1.2 µM,32 ± 1.4 µM,37.6 ± 1.7 µM,highest cellular uptake,,,,,C[C@H](C(=O)OCc1ccc(C[C@@H](N)C(=O)O)cc1)c1cccc(C(=O)c2ccccc2)c1 [Compound 14],10.20 ± 0.61 nmol/mg of protein,52.9 ± 1.3 µM
,,,,,,,,,,,,3.403 ± 0.055 nmol/min/mg,0.115 ± 0.007 µM,0.84 ± 0.12 nmol/min/mg protein,85.8 ± 19.4 µM,"CC(C)C[C@H](N)C(=O)O [L-Leu (Crtl), L-leucine, reference compound]",,
